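Following 48 hours of exposure in 96-well plates, responses at five concentrations were used to interpolate endpoints linearly. Definition used: TGI = concentration required for complete inhibition of growth.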
Tests used:
Experiment in all cases: DTP human tumour cell line panel, 48 h
786-0 renal = system: 786-0 renal
A549 NSCLC = system: A549 NSCLC
ACHN renal = system: ACHN renal
BT-549 breast = system: BT-549 breast
CAKI-1 renal = system: CAKI-1 renal
CCRF-CEM leukemia = system: CCRF-CEM leukemia
COLO 205 colon = system: COLO 205 colon
DU-145 prostate = system: DU-145 prostate
EKVX NSCLC = system: EKVX NSCLC
HCT-116 colon = system: HCT-116 colon
HCT-15 colon = system: HCT-15 colon
HL-60(TB) leukemia = system: HL-60(TB) leukemia
HOP-62 NSCLC = system: HOP-62 NSCLC
HOP-92 NSCLC = system: HOP-92 NSCLC
HS 578T breast = system: HS 578T breast
HT29 colon = system: HT29 colon
IGROV1 ovarian = system: IGROV1 ovarian
K-562 leukemia = system: K-562 leukemia
KM12 colon = system: KM12 colon
LOX IMVI melanoma = system: LOX IMVI melanoma
M14 melanoma = system: M14 melanoma
MALME-3M melanoma = system: MALME-3M melanoma
MCF7 breast = system: MCF7 breast
MDA-MB-231 breast = system: MDA-MB-231 breast
MDA-MB-435 = system: MDA-MB-435
MOLT-4 leukemia = system: MOLT-4 leukemia
NCI-H226 lung = system: NCI-H226 lung
NCI-H23 lung = system: NCI-H23 lung
NCI-H460 lung = system: NCI-H460 lung
NCI-H522 lung = system: NCI-H522 lung
NCI/ADR-RES ovarian = system: NCI/ADR-RES ovarian
OVCAR-3 ovarian = system: OVCAR-3 ovarian
OVCAR-4 ovarian = system: OVCAR-4 ovarian
OVCAR-5 ovarian = system: OVCAR-5 ovarian
PC-3 prostate = system: PC-3 prostate
RXF 393 renal = system: RXF 393 renal
SF-268 CNS = system: SF-268 CNS
SF-295 CNS = system: SF-295 CNS
SF-539 CNS = system: SF-539 CNS
SK-MEL-2 melanoma = system: SK-MEL-2 melanoma
SK-MEL-28 melanoma = system: SK-MEL-28 melanoma
SK-MEL-5 melanoma = system: SK-MEL-5 melanoma
SK-OV-3 ovarian = system: SK-OV-3 ovarian
SN12C renal = system: SN12C renal
SNB-19 CNS = system: SNB-19 CNS
SNB-75 CNS = system: SNB-75 CNS
SR leukemia = system: SR leukemia
SW-620 colon = system: SW-620 colon
T-47D breast = system: T-47D breast
TK-10 renal = system: TK-10 renal
U251 CNS = system: U251 CNS
UACC-257 melanoma = system: UACC-257 melanoma
UACC-62 melanoma = system: UACC-62 melanoma
UO-31 renal = system: UO-31 renal

Oc1ccc(C(O)(c2ccccc2)c2ccccc2)c2ccccc12
TGI (786-0 renal): 6.61 µM | TGI (A549 NSCLC): 11.9 µM | TGI (ACHN renal): 3.73 µM | TGI (BT-549 breast): 26.1 µM | TGI (CAKI-1 renal): 11.1 µM | TGI (CCRF-CEM leukemia): 1.8 µM | TGI (COLO 205 colon): 18.6 µM | TGI (DU-145 prostate): 14 µM | TGI (EKVX NSCLC): 26.4 µM | TGI (HCT-116 colon): 10.7 µM | TGI (HCT-15 colon): 2.9 µM | TGI (HL-60(TB) leukemia): > 100 µM | TGI (HOP-62 NSCLC): 7.16 µM | TGI (HOP-92 NSCLC): 5.22 µM | TGI (HS 578T breast): 44.8 µM | TGI (HT29 colon): 14.1 µM | TGI (IGROV1 ovarian): 5.62 µM | TGI (K-562 leukemia): 23.5 µM | TGI (KM12 colon): 8.05 µM | TGI (LOX IMVI melanoma): 2.62 µM | TGI (M14 melanoma): 10.7 µM | TGI (MALME-3M melanoma): 23.2 µM | TGI (MCF7 breast): > 100 µM | TGI (MDA-MB-231 breast): 5.27 µM | TGI (MDA-MB-435): 6.01 µM | TGI (MOLT-4 leukemia): > 100 µM | TGI (NCI-H226 lung): 9.8 µM | TGI (NCI-H23 lung): 11.8 µM | TGI (NCI-H460 lung): > 100 µM | TGI (NCI-H522 lung): 7.17 µM | TGI (NCI/ADR-RES ovarian): 6.58 µM | TGI (OVCAR-3 ovarian): 3.93 µM | TGI (OVCAR-4 ovarian): 20.7 µM | TGI (OVCAR-5 ovarian): 5.96 µM | TGI (PC-3 prostate): 14.2 µM | TGI (RXF 393 renal): > 100 µM | TGI (SF-268 CNS): 9.63 µM | TGI (SF-295 CNS): 8.19 µM | TGI (SF-539 CNS): 4.62 µM | TGI (SK-MEL-2 melanoma): 7.25 µM | TGI (SK-MEL-28 melanoma): 29.9 µM | TGI (SK-MEL-5 melanoma): 14.6 µM | TGI (SK-OV-3 ovarian): 14.1 µM | TGI (SN12C renal): 6.87 µM | TGI (SNB-19 CNS): 19.8 µM | TGI (SNB-75 CNS): 18.2 µM | TGI (SR leukemia): 7.27 µM | TGI (SW-620 colon): 9.64 µM | TGI (T-47D breast): 24 µM | TGI (TK-10 renal): 8.73 µM | TGI (U251 CNS): 2.91 µM | TGI (UACC-257 melanoma): 23.7 µM | TGI (UACC-62 melanoma): 3.61 µM | TGI (UO-31 renal): 11.6 µM

— PubChem BioAssay (NCI)
